In US10988459B2 (priority 2015, dated 2021) one finds Ki data, which are given here for 27 compounds.

The structures appear in SMILES notation.

This experiment deals with human RIP1 kinase domain (2-375) (Homo sapiens (Human), UniProt Q13546). As to the kind of experiment: biochemical. The following applies: tight-binding apparent inhibition constant; human RIP1 kinase domain (2-375) 50 nM, 50 uM ATP, 2 hours; read-out: Ki. The class given is biochemical. The method, boiled down: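 50 nM purified kinase domain from baculovirus-infected insect cells, incubated 2 h with compound in 50 mM Hepes pH 7.5, 30 mM MgCl2, 1 mM DTT, 50 uM ATP, 0.002% Brij-35, 0.5% DMSO. ADP formation read by Transcreener FP at 633 nm excitation. Ki^app fitted with the Morrison tight-binding equation.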
Chain of human RIP1 kinase domain (2-375) (Q13546 2-375): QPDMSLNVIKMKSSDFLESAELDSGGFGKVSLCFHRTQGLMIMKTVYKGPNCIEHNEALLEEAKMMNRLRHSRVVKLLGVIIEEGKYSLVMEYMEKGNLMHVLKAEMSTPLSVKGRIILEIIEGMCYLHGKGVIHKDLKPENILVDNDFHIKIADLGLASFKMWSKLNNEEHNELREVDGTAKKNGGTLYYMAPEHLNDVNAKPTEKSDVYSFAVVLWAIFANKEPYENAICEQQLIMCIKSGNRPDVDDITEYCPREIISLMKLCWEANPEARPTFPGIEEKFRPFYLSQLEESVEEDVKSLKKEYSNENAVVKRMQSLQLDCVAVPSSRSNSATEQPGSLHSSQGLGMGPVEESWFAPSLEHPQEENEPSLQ
Turning to `CN1C(=O)[C@@H](NC(=O)c2nc3n(n2)C(c2ccccc2)CCC3)COc2ccccc21` (stereo partly drawn) [Example 376, N—((S)-5-methyl-4-oxo-2,3,4,5-tetrahydrobenzo[b][1,4]oxazepin-3-yl)-5-phenyl-5,6,7,8-tetrahydro-[1,2,4]triazolo[1,5-a]pyridine-2-carboxamide], the Ki stood at 42.3 nM.
For `CN1C(=O)[C@@H](NC(=O)c2nc3n(n2)C(C2CCCCC2)CCC3)COc2ccccc21` (stereo partly drawn) [Example 377, 5-cyclohexyl-N—((S)-5-methyl-4-oxo-2,3,4,5-tetrahydrobenzo[b][1,4]oxazepin-3-yl)-5,6,7,8-tetrahydro-[1,2,4]triazolo[1,5-a]pyridine-2-carboxamide] the value was 10.8 nM; for `CCc1cccc2nc(C(=O)N[C@H]3COc4ccccc4N(C)C3=O)nn12` [Example 378, (S)-5-ethyl-N-(5-methyl-4-oxo-2,3,4,5-tetrahydrobenzo[b][1,4]oxazepin-3-yl)-[1,2,4]triazolo[1,5-a]pyridine-2-carboxamide], 6.68 nM.
On to `CCC1CCCc2nc(C(=O)N[C@H]3CCn4nccc4N(C)C3=O)nn21` (stereo partly drawn) [Example 379, 5-ethyl-N—((S)-4-methyl-5-oxo-5,6,7,8-tetrahydro-4H-pyrazolo[1,5-a][1,3]diazepin-6-yl)-5,6,7,8-tetrahydro-[1,2,4]triazolo[1,5-a]pyridine-2-carboxamide], for which the Ki was found to be 374 nM.
For `CN1C(=O)[C@@H](NC(=O)c2nc3n(n2)C(c2ccccc2)CCC3)CCn2nccc21` (stereo partly drawn) [Example 380, N—((S)-4-methyl-5-oxo-5,6,7,8-tetrahydro-4H-pyrazolo[1,5-a][1,3]diazepin-6-yl)-5-phenyl-5,6,7,8-tetrahydro-[1,2,4]triazolo[1,5-a]pyridine-2-carboxamide] the value was 154 nM; for `CN1C(=O)[C@@H](NC(=O)c2nc3n(n2)C(C2CCCCC2)CCC3)CCn2nccc21` (stereo partly drawn) [Example 381, 5-cyclohexyl-N—((S)-4-methyl-5-oxo-5,6,7,8-tetrahydro-4H-pyrazolo[1,5-a][1,3]diazepin-6-yl)-5,6,7,8-tetrahydro-[1,2,4]triazolo[1,5-a]pyridine-2-carboxamide], 282 nM.
On to `CN1C(=O)[C@@H](NC(=O)c2nc3cccc(-c4cc(F)ccc4F)n3n2)CCn2nccc21` [Example 382, (S)-5-(2,5-difluorophenyl)-N-(4-methyl-5-oxo-5,6,7,8-tetrahydro-4H-pyrazolo[1,5-a][1,3]diazepin-6-yl)-[1,2,4]triazolo[1,5-a]pyridine-2-carboxamide], for which the Ki came out at 13.1 nM.
Consider `CCC1CCCc2nc(C(=O)N[C@H]3COc4ccccc4N(C)C3=O)nn21` (stereo partly drawn) [Example 383, 5-ethyl-N—((S)-5-methyl-4-oxo-2,3,4,5-tetrahydrobenzo[b][1,4]oxazepin-3-yl)-5,6,7,8-tetrahydro-[1,2,4]triazolo[1,5-a]pyridine-2-carboxamide], for which the Ki is 29.5 nM.
Regarding `CN1C(=O)[C@@H](NC(=O)c2nc3cccc(-c4ccccc4F)n3n2)CCn2nccc21` [Example 386, (S)-5-(2-fluorophenyl)-N-(4-methyl-5-oxo-5,6,7,8-tetrahydro-4H-pyrazolo[1,5-a][1,3]diazepin-6-yl)-[1,2,4]triazolo[1,5-a]pyridine-2-carboxamide], the Ki came to 14.8 nM.
On to `CN1C(=O)[C@@H](NC(=O)c2nc3n(n2)C(c2ccccc2F)CCC3)CCn2nccc21` (stereo partly drawn) [Example 387, 5-(2-fluorophenyl)-N—((S)-4-methyl-5-oxo-5,6,7,8-tetrahydro-4H-pyrazolo[1,5-a][1,3]diazepin-6-yl)-5,6,7,8-tetrahydro-[1,2,4]triazolo[1,5-a]pyridine-2-carboxamide], for which the Ki was 100 nM.
`CN1C(=O)[C@@H](NC(=O)c2nc3n(n2)C(c2cc(F)ccc2F)CCC3)CCn2nccc21` (stereo partly drawn) [Example 388, 5-(2,5-difluorophenyl)-N—((S)-4-methyl-5-oxo-5,6,7,8-tetrahydro-4H-pyrazolo[1,5-a][1,3]diazepin-6-yl)-5,6,7,8-tetrahydro-[1,2,4]triazolo[1,5-a]pyridine-2-carboxamide]: the Ki was determined as 124 nM.
For `CN1C(=O)[C@@H](NC(=O)c2nc3cccc(-c4ccoc4)n3n2)CCn2nccc21` [Example 389, (S)-5-(furan-3-yl)-N-(4-methyl-5-oxo-5,6,7,8-tetrahydro-4H-pyrazolo[1,5-a][1,3]diazepin-6-yl)-[1,2,4]triazolo[1,5-a]pyridine-2-carboxamide], the Ki worked out at 173 nM.
For `CN1C(=O)[C@@H](NC(=O)c2nc3n(n2)C(C2CCOC2)CCC3)CCn2nccc21` (stereo partly drawn) [Example 390, N—((S)-4-methyl-5-oxo-5,6,7,8-tetrahydro-4H-pyrazolo[1,5-a][1,3]diazepin-6-yl)-5-(tetra hydrofuran-3-yl)-5,6,7,8-tetrahydro-[1,2,4]triazolo[1,5-a]pyridine-2-carboxamide] the value was 3000 nM; for `CN1C(=O)[C@@H](NC(=O)c2nc3cccc(-c4ccccc4)c3s2)COc2ccccc21` [Example 391, (S)—N-(5-methyl-4-oxo-2,3,4,5-tetrahydrobenzo[b][1,4]oxazepin-3-yl)-7-phenylbenzo[d]thiazole-2-carboxamide], 65.8 nM; for `CN1C(=O)[C@@H](NC(=O)c2nc3cccc(-c4ccccc4)c3s2)CCn2nccc21` [Example 392, (S)—N-(4-methyl-5-oxo-5,6,7,8-tetrahydro-4H-pyrazolo[1,5-a][1,3]diazepin-6-yl)-7-phenylbenzo[d]thiazole-2-carboxamide], 96.3 nM.
With `CN1C(=O)[C@@H](NC(=O)c2nc3cccc(-c4cnn(C)c4)n3n2)CCn2nccc21` [Example 393, (S)-5-(1-methyl-1H-pyrazol-4-yl)-N-(4-methyl-5-oxo-5,6,7,8-tetrahydro-4H-pyrazol-[1,5-a][1,3]diazepin-6-yl)-[1,2,4]triazolo[1,5-a]pyridine-2-carboxamide], the Ki is 463 nM.
For `CN1C(=O)[C@@H](NC(=O)c2nc3cccc(-c4c(F)cccc4F)n3n2)CCn2nccc21` [Example 394, (S)-5-(2,6-difluorophenyl)-N-(4-methyl-5-oxo-5,6,7,8-tetrahydro-4H-pyrazolo[1,5-a][1,3]diazepin-6-yl)-[1,2,4]triazolo[1,5-a]pyridine-2-carboxamide], the Ki was 6.04 nM.
Regarding `CN1C(=O)[C@@H](NC(=O)c2nc3cccc(C4=CCOCC4)n3n2)CCn2nccc21` [Example 395, (S)-5-(3,6-dihydro-2H-pyran-4-yl)-N-(4-methyl-5-oxo-5,6,7,8-tetrahydro-4H-pyrazolo[1,5-a][1,3]diazepin-6-yl)-[1,2,4]triazolo[1,5-a]pyridine-2-carboxamide], the Ki turned out to be 104 nM.
Take `CN1C(=O)[C@@H](NC(=O)c2nc3n(n2)C(c2c(F)cccc2F)CCC3)CCn2nccc21` (stereo partly drawn) [Example 396, 5-(2,6-difluorophenyl)-N—((S)-4-methyl-5-oxo-5,6,7,8-tetrahydro-4H-pyrazolo[1,5-a][1,3]diazepin-6-yl)-5,6,7,8-tetrahydro-[1,2,4]triazolo[1,5-a]pyridine-2-carboxamide]: the Ki amounted to 152 nM.
As for `CN1C(=O)[C@@H](NC(=O)c2nc3n(n2)C(c2cnn(C)c2)CCC3)CCn2nccc21` (stereo partly drawn) [Example 397, 5-(1-methyl-1H-pyrazol-4-yl)-N—((S)-4-methyl-5-oxo-5,6,7,8-tetrahydro-4H-pyrazolo[1,5-a][1,3]diazepin-6-yl)-5,6,7,8-tetrahydro-[1,2,4]triazolo[1,5-a]pyridine-2-carboxamide], the Ki stood at 709 nM.
With `CN1C(=O)[C@@H](NC(=O)c2nc3cccc(-c4cnn(C)c4)n3n2)COc2ccccc21` [Example 398, (S)-5-(1-methyl-1H-pyrazol-4-yl)-N-(5-methyl-4-oxo-2,3,4,5-tetrahydrobenzo[b][1,4]oxazepin-3-yl)-[1,2,4]triazolo[1,5-a]pyridine-2-carboxamide] the figure was 36 nM; with `CN1C(=O)[C@@H](NC(=O)c2nc3cccc(-c4ccoc4)n3n2)COc2ccccc21` [Example 399, (S)-5-(furan-3-yl)-N-(5-methyl-4-oxo-2,3,4,5-tetrahydrobenzo[b][1,4]oxazepin-3-yl)-[1,2, 4]triazolo[1,5-a]pyridine-2-carboxamide], 4.5 nM.
As for `CN1C(=O)[C@@H](NC(=O)c2nc3cccc(C4CCOCC4)n3n2)COc2ccccc21` [Example 405, (S)—N-(5-methyl-4-oxo-2,3,4,5-tetrahydrobenzo[b][1,4]oxazepin-3-yl)-5-(tetrahydro-2H-pyran-4-yl)-[1,2,4]triazolo[1,5-a]pyridine-2-carboxamide], the Ki came to 35.6 nM.
With `CC(C)c1cccc2nc(C(=O)N[C@H]3COc4ccccc4N(C)C3=O)nn12` [Example 406, (S)-5-isopropyl-N-(5-methyl-4-oxo-2,3,4,5-tetrahydrobenzo[b][1,4]oxazepin-3-yl)-[1,2,4]triazolo[1,5-a]pyridine-2-carboxamide] the figure was 4.72 nM; with `CN1C(=O)[C@@H](NC(=O)c2nc3n(n2)C(C2CCOCC2)CCC3)COc2ccccc21` (stereo partly drawn) [Example 408, N—((S)-5-methyl-4-oxo-2,3,4,5-tetrahydrobenzo[b][1,4]oxazepin-3-yl)-5-(tetrahydro-2H-pyran-4-yl)-5,6,7,8-tetrahydro-[1,2,4]triazolo[1,5-a]pyridine-2-carboxamide], 147 nM.
Regarding `O=C(N[C@H]1COc2cc(F)cc(F)c2NC1=O)c1nc2cccc(C(F)(F)F)n2n1` [Example 417, (S)—N-(6,8-difluoro-4-oxo-2,3,4,5-tetrahydrobenzo[b][1,4]oxazepin-3-yl)-5-(trifluoromethyl)-[1,2,4]triazolo[1,5-a]pyridine-2-carboxamide], the Ki is 36.5 nM.
Consider `O=C(N[C@H]1CCc2cc(F)cc(F)c2NC1=O)c1nc2cccc(C(F)(F)F)n2n1` [Example 418, (S)—N-(7,9-difluoro-2-oxo-2,3,4,5-tetrahydro-1H-benzo[b]azepin-3-yl)-5-(trifluoromethyl)-[1,2,4]triazolo[1,5-a]pyridine-2-carboxamide], for which the Ki amounted to 34.3 nM.
